ChEMBL document CHEMBL5149969, “Amyloid-β and tau aggregation dual-inhibitors: A synthetic and structure-activity relationship focused review” (Eur J Med Chem, 2021)

Tests used:
[1] = target: T1, Amyloid-beta precursor protein (Homo sapiens, UniProt P05067); experiment: Inhibition of amyloid beta 42 transfected in human H4 cells incubated for 20 to 24 hrs by LPECL assay; format: cell-based
[2] = Inhibition of amyloid beta 38 secretion transfected in human H4 cells incubated for 20 to 24 hrs by LPECL assay; format: cell-based
[3] = target: T2, Microtubule-associated protein tau (Homo sapiens, UniProt P10636); experiment: Inhibition of tau depolymerization (unknown origin) transfected in H4 cells incubated for 20 to 24 hrs by LPECL assay; format: cell-based
[4] = target: T2, Microtubule-associated protein tau; experiment: Inhibition of tau (unknown origin) transfected in human H4 cells incubated for 20 to 24 hrs by LPECL assay; format: cell-based
[5] = target: T2, Microtubule-associated protein tau; experiment: Inhibition of tau aggregation (unknown origin) at 20 uM relative to control
[6] = target: T1, Amyloid-beta precursor protein; experiment: Inhibition of amyloid beta 42 (unknown origin) at 20 uM relative to control
[7] = target: T2, Microtubule-associated protein tau; experiment: Inhibition of Tau (unknown origin) expressed in Escherichia coli BL21 (DE3) at 10 uM relative to control
[8] = target: T1, Amyloid-beta precursor protein; experiment: Inhibition of amyloid beta 42 (unknown origin) expressed in Escherichia coli BL21 (DE3) at 10 uM relative to control

T1 sequence (P05067 whole entry): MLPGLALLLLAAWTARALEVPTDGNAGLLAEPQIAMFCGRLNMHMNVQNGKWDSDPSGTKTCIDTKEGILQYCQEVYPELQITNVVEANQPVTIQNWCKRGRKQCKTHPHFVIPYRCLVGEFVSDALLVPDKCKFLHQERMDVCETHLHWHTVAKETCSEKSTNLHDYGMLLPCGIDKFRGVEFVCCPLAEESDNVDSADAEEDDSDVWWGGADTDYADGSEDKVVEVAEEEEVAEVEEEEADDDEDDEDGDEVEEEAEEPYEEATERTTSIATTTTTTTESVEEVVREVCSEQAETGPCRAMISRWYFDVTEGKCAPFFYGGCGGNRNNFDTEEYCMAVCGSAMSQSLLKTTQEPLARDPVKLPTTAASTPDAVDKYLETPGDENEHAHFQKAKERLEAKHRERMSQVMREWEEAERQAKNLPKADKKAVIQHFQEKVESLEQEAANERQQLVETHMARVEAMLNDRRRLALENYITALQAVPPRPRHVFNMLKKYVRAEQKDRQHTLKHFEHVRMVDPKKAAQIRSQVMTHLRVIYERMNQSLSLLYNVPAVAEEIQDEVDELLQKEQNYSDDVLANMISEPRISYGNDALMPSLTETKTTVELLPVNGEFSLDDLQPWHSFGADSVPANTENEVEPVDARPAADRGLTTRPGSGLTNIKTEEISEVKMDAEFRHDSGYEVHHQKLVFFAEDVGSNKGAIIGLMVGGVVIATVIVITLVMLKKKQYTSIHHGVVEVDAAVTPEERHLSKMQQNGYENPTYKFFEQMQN
T2 sequence (P10636 whole entry): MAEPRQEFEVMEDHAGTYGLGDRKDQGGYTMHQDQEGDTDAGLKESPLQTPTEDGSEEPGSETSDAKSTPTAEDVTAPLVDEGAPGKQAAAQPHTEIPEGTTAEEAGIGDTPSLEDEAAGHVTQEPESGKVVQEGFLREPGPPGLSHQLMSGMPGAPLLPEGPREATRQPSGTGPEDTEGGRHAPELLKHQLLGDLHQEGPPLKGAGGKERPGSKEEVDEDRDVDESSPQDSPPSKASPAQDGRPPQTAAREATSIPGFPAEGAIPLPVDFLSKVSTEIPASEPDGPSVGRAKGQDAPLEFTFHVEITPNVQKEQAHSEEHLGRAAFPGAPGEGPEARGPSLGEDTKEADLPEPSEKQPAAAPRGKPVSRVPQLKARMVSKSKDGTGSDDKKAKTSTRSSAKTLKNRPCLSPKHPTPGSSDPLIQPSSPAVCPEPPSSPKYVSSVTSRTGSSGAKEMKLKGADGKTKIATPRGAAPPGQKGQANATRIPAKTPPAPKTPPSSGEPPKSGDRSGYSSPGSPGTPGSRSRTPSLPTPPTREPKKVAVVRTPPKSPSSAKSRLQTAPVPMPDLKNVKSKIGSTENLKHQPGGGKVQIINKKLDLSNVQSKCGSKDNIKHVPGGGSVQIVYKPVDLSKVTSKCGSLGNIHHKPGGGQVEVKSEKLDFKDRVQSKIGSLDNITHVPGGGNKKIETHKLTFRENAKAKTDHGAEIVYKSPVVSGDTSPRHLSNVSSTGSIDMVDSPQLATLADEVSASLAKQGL

Structure (SMILES) | IC50 [2] [µM] | DC50 [3] [µM] | IC50 [4] [µM] | inhibition [7] [%] | inhibition [8] [%] | other results
COc1cc(/C=C/c2cc(/C=C/c3ccc(O)c(OC)c3)n(-c3ccc(C)cc3)n2)ccc1O | 6 | > 200 | 35 | – | – | IC50 [1]: > 1 µM
C[n+]1c2c(c(N)c3ccccc31)C(=O)/C(=C/c1cccc(F)c1)CC2 | – | – | – | – | – | inhibition [5]: 86.3%
COc1cc(/C=C/c2cc(/C=C/c3ccc(O)c(OC)c3)n(-c3cc(Cl)cc(Cl)c3)n2)ccc1O | 3.3 | > 200 | 10 | – | – | –
C[n+]1c2c(c(N)c3ccccc31)C(=O)/C(=C/c1cccc([N+](=O)[O-])c1)CC2 | – | – | – | – | – | inhibition [6]: 86.4%; inhibition [5]: 98.2%
COc1cc(/C=C/c2cc(/C=C/c3ccc(O)c(OC)c3)n(-c3cccc([N+](=O)[O-])c3)n2)ccc1O | 8.1 | 4 | 5 | – | – | –
COc1cc(/C=C/c2cc(/C=C/c3ccc(O)c(OC)c3)on2)ccc1O | 6.1 | > 200 | > 200 | – | – | –
COc1cc(/C=C/c2cc(/C=C/c3ccc(O)c(OC)c3)n(CCO)n2)ccc1O | 13.6 | 65 | 69 | – | – | –
COc1cc(/C=C/c2cc(/C=C/c3ccc(O)c(OC)c3)n(C)n2)ccc1O | 6.3 | 8 | 13 | – | – | –
CN(C)c1ccc2nc3ccc(=[N+](C)C)cc-3sc2c1 | – | – | – | – | – | inhibition [5]: 80.1%
COc1cc(/C=C/c2cc(/C=C/c3ccc(O)c(OC)c3)n(-c3ccccc3)n2)ccc1O | 6.3 | 73 | 103 | – | – | IC50 [1]: > 1 µM
COc1cc(/C=C/c2cc(/C=C/c3ccc(O)c(OC)c3)n(-c3ccc(Cl)nn3)n2)ccc1O | 3.4 | 46 | 54 | – | – | IC50 [1]: > 1 µM
C[n+]1c2c(c(N)c3ccccc31)C(=O)/C(=C/c1cccs1)CC2 | – | – | – | – | – | inhibition [5]: 95.3%
COc1cc(/C=C/c2cc(/C=C/c3ccc(O)c(OC)c3)n(Cc3ccccc3)n2)ccc1O | 7.7 | 73 | 35 | – | – | IC50 [1]: > 1 µM
COc1cc(/C=C/C(=O)CC(=O)/C=C/c2ccc(O)c(OC)c2)ccc1O [CURCUMIN] | > 20 | – | – | – | – | –
C[n+]1c2c(c(N)c3ccccc31)C(=O)/C(=C/c1cccc(Cl)c1)CC2 | – | – | – | – | – | inhibition [5]: 98.3%
C[n+]1c2c(c(N)c3ccccc31)C(=O)/C(=C/c1cccc3ccccc13)CC2 | – | – | – | – | – | inhibition [5]: 102%
C[n+]1c2c(c(N)c3ccccc31)C(=O)/C(=C/c1ccccc1)CC2 | – | – | – | – | – | inhibition [5]: 71.2%
COc1cc(/C=C/c2cc(/C=C/c3ccc(OCC(=O)OC(C)(C)C)c(OC)c3)on2)ccc1OCC(=O)OC(C)(C)C | > 40 | > 200 | > 200 | – | – | IC50 [1]: > 1 µM
Nc1c2c(nc3ccccc13)CC/C(=C\c1ccccc1)C2=O | – | – | – | – | – | inhibition [5]: 18.7%
COc1cc(/C=C/c2cc(/C=C/c3ccc(O)c(OC)c3)[nH]n2)ccc1O [CURCUMIN PYRAZOLE] | 5.2 | 17 | 34 | – | – | IC50 [1]: 0.476 µM
COc1cc(/C=C/c2cc(/C=C/c3ccc(OCC(=O)O)c(OC)c3)on2)ccc1OCC(=O)O | > 40 | > 200 | > 200 | – | – | IC50 [1]: > 1 µM
COc1cc(/C=C/c2cc(/C=C/c3ccc(O)c(OC)c3)n(-c3ccc(C(C)C)cc3)n2)ccc1O | 4.7 | 190 | 18 | – | – | IC50 [1]: > 1 µM
COc1cc(/C=C/c2cc(/C=C/c3ccc(O)c(OC)c3)n(-c3ccc([N+](=O)[O-])cc3)n2)ccc1O | 3.5 | 1.1 | 1.2 | – | – | IC50 [1]: > 1 µM

Further lines, with some results ahead:

IC50 [2] [µM] | DC50 [3] [µM] | IC50 [4] [µM] | inhibition [7] [%] | inhibition [8] [%] | Structure (SMILES) | other results
– | – | – | 60.2 | 66.7 | Cc1c(OCc2ccccc2)cccc1N1CCN(CCCCCCCCNc2c3c(nc4ccccc24)CCCC3)CC1 | –
– | – | – | 64.8 | 64.2 | Cc1c(OCc2ccccc2)cccc1N1CCN(CCCCCCNCc2ccccc2)CC1 | –
– | – | – | 57.3 | 54.1 | Cc1c(OCc2ccccc2)cccc1N1CCN(CCNC2CCN(Cc3ccccc3)CC2)CC1 | –
– | – | – | 70.3 | 67.4 | Cc1c(OCc2ccccc2)cccc1N1CCN(CCCCCCCNc2c3c(nc4ccccc24)CCCC3)CC1 | –
– | – | – | 52.7 | 61.8 | O=S(=O)(c1ccccc1)n1ccc2c(N3CCN(CCCCCCNC4CCN(Cc5ccccc5)CC4)CC3)cccc21 | –
– | – | – | 64.5 | 64.9 | Cc1c(OCc2ccccc2)cccc1N1CCN(CCCNCc2ccccc2)CC1 | –
– | – | – | 64 | 66.9 | Cc1c(OCc2ccccc2)cccc1N1CCN(CCCCCCNc2c3c(nc4ccccc24)CCCC3)CC1 | –
– | – | – | 62.8 | 62 | Cc1c(OCc2ccccc2)cccc1N1CCN(CCCCNC2CCN(Cc3ccccc3)CC2)CC1 | –
– | – | – | 58.6 | 55.7 | Cc1c(OCc2ccccc2)cccc1N1CCN(CCNc2c3c(nc4ccccc24)CCCC3)CC1 | –
– | – | – | 60.2 | 55.7 | Cc1c(OCc2ccccc2)cccc1N1CCN(CCCNC2CCN(Cc3ccccc3)CC2)CC1 | –
– | – | – | 62.9 | 57.7 | c1ccc(Cn2ccc3c(N4CCN(CCCCNc5c6c(nc7ccccc57)CCCC6)CC4)cccc32)cc1 | –
– | – | – | 54.6 | 64.8 | O=S(=O)(c1ccccc1)n1ccc2c(N3CCN(CCN4CCN(Cc5cccc6c5ccn6Cc5ccccc5)CC4)CC3)cccc21 | –
